Assays:
[1] = Cytotoxicity (CC50) in RAW cells; details: mouse
mouse norovirus = test: Mouse Norovirus (MNV) assay in RAW cells; details: Norovirus, in Mus musculus, read-out: MNV Mean EC50, RAW cells
human norovirus = test: Efficacy of Compound 1 Against Human Norovirus (viral titer); type: cell-based; details: cells pretreated with 25 μM compound for two hours; duplicate (FIGS. 4-6)
Method: The efficacy of compound 1 for inhibiting norovirus was compared to DMSO (as a control), compound 2, and 2′-C-methylcytidine triphosphate (2′CmeC TP). Cells were pretreated with 25 μM of experimental compound for two hours. Virus inoculum was added for two hours, and unbound virus washed off and fresh media and fresh experimental compound was added.

| SMILES | CC50 [1] [µM] | EC50 (mouse norovirus) [µM] | viral titer (human norovirus) |
| --- | --- | --- | --- |
| C[C@@]1(O)[C@H](O)[C@@H](CO)O[C@H]1n1ccc(N)nc1=O [2′-C-Methyl Cytidine, reference compound] | 34.3 | 3.2 |  |
| C[C@@]1(O)[C@H](O)[C@@H](COP(=O)(O)OP(=O)(O)OP(=O)(O)O)O[C@H]1n1ccc(N)nc1=O [2′CmeC TP, 2′-C-methylcytidine triphosphate, reference compound] |  |  | increased almost two orders of magnitude |

Reference: patent publication US9708359B2, “Pyrrolopyrimidine nucleosides and analogs thereof” (Chimerix, Inc., priority 2015, dated 2017)
